These results are taken from patent publication US20050233984A1, “Composition for preventing or treating degenerative brain diseases comprising a hydrolysate of ginsenosides” (Digital Biotech Co., Ltd., priority 2002, published 2005).

Assay [1] deals with neuroblastoma B103 cell line. The experiment in a line: MTT test: preventing the toxicity of beta-amyloid. The format is cell-based. The settings on record: for Survival rate (%): B103 cells, beta-amyloid-only control = 100%. On the procedure:
In order to examine the activities of the compounds prepared in the Reference Example in preventing the toxicity of beta-amyloid, the MTT analysis (Gillardon, F. et al., Brain Research. No. 6: pp. 169-172 (1996)) was carried out as follows.
5×10^3 cells of neuroblastoma B103 cell line (donated by Dr. David Schubert of the Salk Institute, USA) were placed in each well of a 96-well plate with 100 μl of DMEM (Dulbecco's Minimal Eagle's Medium) containing 10% fetal bovine serum (FBS), and cultured at 37° C. under 8% CO2 for 1 day. […] The cells were cultured at 37° C. for 18 hours, treated with 15 μl of MTT solution [10 mg/ml solution of 3-(4,5-dimethyl-2-thiazolyl)-2,5-diphenyl-2H-tetrazolium bromide in phosphate buffered saline (PBS)], and allowed to react at 37° C. for 3 to 4 hours. 100 μl of lysis buffer (10% SDS, 50% dimethylformamide, pH 4.7) was added to the wells, and the cells were cultured overnight at room temperature and relative humidity of 90%. Optical density (OD) of each well was measured at […] and 630 nm, respectively, using a scanning multiwell spectrophotometer, and then the OD value at 630 nm was subtracted from that at 570 nm.
Setting the survival rate of the control group treated only with beta-amyloid as 100%, relative survival rates of the experimental groups treated with compound Y, ginsenosides Mc and Rc, PPD and PPT, respectively, were calculated, and the results are shown in Table 2 and FIG. 1. The obtained values were statistically significant.
When the same procedure as above was repeated except that the cells were treated simultaneously with the test compound and beta-amyloid, or treated with the test compound one hour after the beta-amyloid treatment, the results were almost the same as above.
Further, in order to assess the concentration-dependent activity of a test compound, the above procedure was repeated using PPT at concentrations ranging from […].

The test system of assay [2] is neuroblastoma B103 cell line. The assay is described as follows: MTT test: anti-oxidative effect, H2O2 in place of beta-amyloid. The settings on record: B103 cells, H2O2-only control = 100%. The assay is classed as cell-based. The method, then: 5×10^3 cells of neuroblastoma B103 cell line (donated by Dr. David Schubert of the Salk Institute, USA) were placed in each well of a 96-well plate with 100 μl of DMEM (Dulbecco's Minimal Eagle's Medium) containing 10% fetal bovine serum (FBS), and cultured at 37° C. under 8% CO2 for 1 day. After changing the medium to serum-free DMEM, the cells were treated with various concentrations of test compounds and, 1 hour later, with 25 μM of beta-amyloid (25-35 peptide; US peptide, CA, USA). The cells were cultured at 37° C. for 18 hours, treated with 15 μl of MTT solution [10 mg/ml solution of 3-(4,5-dimethyl-2-thiazolyl)-2,5-diphenyl-2H-tetrazolium bromide in phosphate buffered saline (PBS)], and allowed to react at 37° C. for 3 to 4 hours. 100 μl of lysis buffer (10% SDS, 50% dimethylformamide, pH 4.7) was added to the wells, and the cells were cultured overnight at room temperature and relative humidity of 90%. Optical density (OD) of each well was measured at […] and 630 nm, respectively, using a scanning multiwell spectrophotometer, and then the OD value at 630 nm was subtracted from that at 570 nm.
In order to examine whether compounds originating from ginseng can block oxidative stress, the procedure of Example 1 was repeated except for using 1 μM of H2O2 in place of beta-amyloid, and the survival rates of the neural cells were determined.

A further assay concerns α-secretase. The experiment in a line: sAPPα secretion by Western blotting in B103 cells. The settings on record: 1 μM, 18 hours, compared with untreated control, FIG. 5. The assay is classed as cell-based. The method, then: In order to examine whether the ginseng-originated compounds can inhibit beta-amyloid production, the activity of α-secretase, which cleaves beta-amyloid, was examined.
1×10^6 cells of neuroblastoma B103 cell line (donated by Dr. David Schubert of the Salk Institute, USA), which secretes APP (amyloid precursor protein), were plated on a […] with 100 μl of DMEM medium containing 10% FBS (Fetal Bovine Serum) and cultured overnight at […] under 8% CO2. The medium was replaced with serum-free DMEM (Gibco, USA), and PPD, PPT or PDBu (phorbol-12, 13-dibutyrate: Sigma Co., USA) was added thereto at a concentration of 1 μM each. The cells were cultured further for 18 hours. The supernatant was isolated from each culture solution and concentrated through a concentration filter (viva spin centricon, obtained from: Vivascience, Binbrook Hill, Binbrook, England). The concentrate was prepared to have a protein concentration of 2 μg/ml and then subjected to electrophoresis on a 8% SDS-PAGE gel.
Protein bands on the gel were transferred to PVDF (polyvinylidene fluoride) membrane (Millipore Co., Bedford, Mass., USA) and blocked with 5% skim milk. The bands on PVDF were reacted with sAPPα-specific antibody 6E10 (1:2000 dilution, Cat. No. 320-05, Senetek, Maryland heights, Mo., USA) at room temperature for 2 hours. […] The protein bands were then quantified via image analysis.

The next assay has as its system synaptophysin. The assay is described as follows: Synaptic density: synaptophysin in hippocampus and cortex by Western blotting. As to conditions: 0.5 mg/kg intraperitoneally once a day for 4 days, C57BL/6 mice. The format is in vivo. On the procedure:
1 mg/kg of ginsenoside Rc or Mc, or compound Y or K, or 0.5 mg/kg of PPD or PPT was intraperitoneally administered to C57BL/6 mice (9-week old, weight: about 25 g) once a day for 4 days. Then, the brain of the mouse was removed and the hippocampus and cortex were separated therefrom. The amounts of synaptophysin, a protein marker of synaptic vesicle, in the hippocampus and cortex were quantified with Western blotting and an image analysis with a densitometer (LAS100, Fujifilm, Japan) employing a synaptophysin-specific antibody (Cat #902 314, Boehringer Mannheim, Germany).
In general terms: In western blotting, separated proteins are transferred to a membrane and probed.

Setting [3] is: test compound 1 μM + 25 μM beta-amyloid (25-35), 18 hours.
[4] abbreviates: test compound 1 μM alone, without beta-amyloid.
[5] abbreviates: test compound 1 μM alone, without H2O2.

As to `CC(C)=CCC[C@](C)(O)[C@H]1CC[C@]2(C)[C@@H]1[C@H](O)C[C@@H]1[C@@]3(C)CC[C@H](O)C(C)(C)[C@@H]3[C@@H](O)C[C@]12C` [PPT, protopanaxatriol], the “concentration-dependent inhibitory activity against beta-amyloid toxicity (in words)” value in assay [1] (FIG. 2, PPT concentration series) was “began to show its inhibitory activity at the μM level”. In addition, the “Survival rate (%)” value in assay [1] (setting [3]) is 106.6 ± 1.2%; in assay [1] (setting [4]), 157.4 ± 3.3%; in assay [1] (test compound 10 μM + 25 μM beta-amyloid (25-35), 18 hours), 119.7 ± 8.5%; in assay [1] (test compound 10 μM alone, without beta-amyloid), 140.3 ± 6.4%; in assay [2] (test compound 1 μM + 1 μM H2O2), 381.3 ± 0.9%; in assay [2] (setting [5]) it was 516.1 ± 1.6%. Moreover, the “Survival rate (%)” value is 457.8 ± 2.5% in assay [2] (test compound 10 μM + 1 μM H2O2) and 516.5 ± 1.2% in assay [2] (test compound 10 μM alone, without H2O2). In addition, in the assay on α-secretase, the sAPPα secretion level entry is “higher”. Moreover, the “amount of synaptophysin in cortex” value in the assay on synaptophysin is “no change”. Also, in the assay on synaptophysin, the “amount of synaptophysin in hippocampus” value is on record as “significantly increased”.
Take `CC(C)=CCCC(C)(O)[C@H]1CC[C@]2(C)[C@@H]1[C@H](O)C[C@@H]1[C@@]3(C)CC[C@H](O)C(C)(C)[C@@H]3CC[C@]12C` (stereo in doubt) [PPD, protopanaxadiol]: the “Survival rate (%)” value in assay [1] (setting [3]) came out at 106.7 ± 6.9%; in assay [1] (setting [4]), 137.7 ± 4.8%; in assay [2] (test compound 1 μM + 1 μM H2O2) it was 219.6 ± 3.0%; in assay [2] (setting [5]) it was 494.3 ± 3.5%. In the assay with α-secretase, the sAPPα secretion level result is “higher”. Moreover, the “amount of synaptophysin in cortex” value with synaptophysin is given as “no change”. Besides, the “amount of synaptophysin in hippocampus” value in the assay with synaptophysin is on record as “significantly increased”.
